# Experimental data: patent US20260217699A1, “BERBERINE TAUROURSODEOXYCHOLATE COMPOSITIONS AND METHODS THEREOF” (SHENZHEN HIGHTIDE BIOPHARMACEUTICAL LTD., priority 2023, published 2026)
# Tests used:
# [1] = system: tyrosine hydroxylase (TH)-positive cells; assay: Immunofluorescence staining of TH in Str and SN brain regions; assay type: in vivo, Sprague-Dawley rats; conditions: Mean ± SEM, N=15; for TH staining SN positive cells num.: Model 0.9 ± 0.5; for TH staining Str Fluorescence intensity: Model 11.1 ± 3.0
# Method: After the rat was anesthetized, the abdominal cavity and thorax were cut open with straight scissors to expose the heart. The blood was first flushed out with normal saline perfusion, and then paraformaldehyde was used for initial perfusion fixation. The head was cut off, and the brain case was carefully opened with tweezers, and the brain tissue was removed and placed in paraformaldehyde solution and fix for 24 h; on the second day, took out the brain tissue and placed in 20% sucrose solution for 24 h; on the third day, took out the brain tissue and placed in 30% sucrose solution for 24 h; on the fourth day, took out the brain tissue and placed in 35% sucrose solution for 24 h (increase the time or concentration appropriately according to the condition of sugar deposition in the brain tissues); took out the brain tissue, embedded it in OCT embedding agent, and cut brain slices at the thickness of […] with a freezing microtome.
# Immunohistochemical staining of TH and Iba-1 was performed on the sections. Sections were rewarmed for 30 min, closed at room temperature for 1 h with 50% serum+0.3% TritonX-100 in 50 μL per slice, shook off the slices, added primary antibody (diluted in PBS), overnight at 4° C.; rewarmed for 30 min; washed off primary antibody (PBS), 5 min×3 times; added secondary antibody (diluted in PBS) by backlighting, room temperature for 2 h; washed off secondary antibody (PBS), 5minx 3 times; added (4′,6-diamidino-2-phenylindole) (DAPI), and stayed at room temperature for 10 min; washed off DAPI, 5 min×3 times; added 70% glycerol to seal the slices to avoid air bubbles. Observed and took pictures under a microscope. Selected basically the same target brain area for each slice. Afterwards, ImageJ was used to count the signal number or area of the entire slice.
# Experimental Methods: Seventy 180-220g SD male rats were selected and fed for one week for accumulation, and the PD model was established by stereotactic unilateral injection of 6-OHDA in the Substantia Nigra (SN) and Striatum (Str) regions and were randomly divided into five groups according to their body weights including Madopar group (Madopar, 50 mg/kg), BTUDC-L group (BTUDC, 100 mg/kg), BTUDC-M group (BTUDC, 500 mg/kg), and BTUDC-H group (BTUDC, 1000 mg/kg), with 10 animals in each group. Another 10 SD male rats were taken for sham operation (only 4 μL of 0.9% NS containing 0.02% ascorbic acid was given to the SN and Str brain regions during modeling) as the Sham group. The drug was administered by gavage once daily continuously for 21 days starting on the second day of modeling (first day of dosing, D1). General observation was made during the dosing period. At the end of the administration, the test articles were evaluated for tolerance in this model and in behavioral apomorphine—asymmetric rotation test, beam test, rotarod test and grip strength test, immunofluorescence staining (TH, Ibal), and cerebrospinal fluid inflammatory factor assays to evaluate the pharmacodynamic effects of the test articles. Inflammatory factors tested included interleukin 6 (1L-6), inflammatory factor […], Tumor Necrosis Factor alpha (TNF-α), inflammatory assays were done in a total of 4 groups included Sham, Model, Madopar and BTUDC-H groups.
# Dosing volume: 10 mL/kg • 1. General observation: During the period of drug administration, body weight, food intake test and cage side observation were conducted every 3 days. • 2. Behavioral test: After 21 days of administration, behavioral test was carried out on the following day. • 3. […]
# [2] = system: 6-OHDA Stereotactic Injection Induced PD Rats; assay: Grip strength test; assay type: in vivo, Sprague-Dawley rats; conditions: for Peak Grip Strength: Mean ± SEM, N=10, Model 558.334 ± 10.175, p<0.001 vs Model
# Text: The rats were respiratory anesthetized with isoflurane; the head was fixed to ensure that there was no movement and the brain surface was adjusted to be flat; the head was shaved, and a skin incision was made along the sagittal suture to expose the fontanel point; the glass electrode was positioned to the fontanel, and the axes of the coordinate monitor were zeroed to locate the brain areas of the SN and the Str based on the coordinates, in which the SN: AP=−5.0 mm; ML=−1.9 mm; DV=−8.5 mm, and Str: AP=+0.5 mm; ML=−3.0 mm; DV=−6.0 mm. […]; slowly inserted the needle into the localized area of SN and Str, waited for 10 min, and then administered the drug of 6-OHDA at a rate of […] for 10 min, and each animal was given […] of each of SN and Str area, and then the needle was slowly withdrawn after the drug was administered for 10 min, and the PD rat model was established.
# The animal was placed on the platform with both forelimbs on the gripping pole, followed by grabbing the animal's tail, and pulling it straight back until the pulling force exceeded their gripping force. After the animals lose their grip, the preamplifier automatically recorded the maximum value of the pulling force. After the measurement was completed, the average of the maximum pulling force of each group of animals was calculated to evaluate the rat's locomotor muscle ability. Information on the grip strength test can also be found in the literature (Jeyasingham, et al. 2001 Brain Res Bull. 55(4):541-8).
# In this study, 16 Sprague Dawley (SD) male rats 180g-220g were used to establish a PD model by stereotactic unilateral injection of 6-OHDA in the substantia nigra (SN) and striatum (Str) brain areas after one week of acclimatization feeding and were randomly divided into 2 groups of 8 rats each. […]
# Experimental Methods: Seventy 180-220g SD male rats were selected and fed for one week for accumulation, and the PD model was established by stereotactic unilateral injection of 6-OHDA in the Substantia Nigra (SN) and Striatum (Str) regions and were randomly divided into five groups according to their body weights including Madopar group (Madopar, 50 mg/kg), BTUDC-L group (BTUDC, 100 mg/kg), BTUDC-M group (BTUDC, 500 mg/kg), and BTUDC-H group (BTUDC, 1000 mg/kg), with 10 animals in each group. […] At the end of the administration, the test articles were evaluated for tolerance in this model and in behavioral apomorphine—asymmetric rotation test, beam test, rotarod test and grip strength test, immunofluorescence staining (TH, Ibal), and cerebrospinal fluid inflammatory factor assays to evaluate the pharmacodynamic effects of the test articles. […]
# [3] = BTUDC-H 1000 mg/kg p.o. Qd 21 days, p<0.001 vs Model
# [4] = BTUDC-L 100 mg/kg p.o. Qd 21 days, no significance mark
compound,measurement,setting,value
"COc1ccc2cc3[n+](cc2c1OC)CCc1cc2c(cc1-3)OCO2.C[C@H](CCC(=O)NCCS(=O)(=O)[O-])[C@H]1CC[C@H]2[C@@H]3[C@@H](O)C[C@@H]4C[C@H](O)CC[C@]4(C)[C@H]3CC[C@]12C [BTUDC, Berberine tauroursodeoxycholate]",TH staining SN positive cells num.,[1]; [3],12.7 ± 3.1
same,TH staining Str Fluorescence intensity,[1]; [3],65.8 ± 4.4
same,TH staining SN positive cells num.,[1]; [4],0.7 ± 0.3
same,TH staining Str Fluorescence intensity,[1]; [4],19.8 ± 3.5
same,TH staining SN positive cells num.,"[1]; BTUDC-M 500 mg/kg p.o. Qd 21 days, no significance mark",2.0 ± 0.6
same,TH staining Str Fluorescence intensity,"[1]; BTUDC-M 500 mg/kg p.o. Qd 21 days, p<0.001 vs Model",32.6 ± 5.5
same,Grip Strength Test Peak grip strength(gf),"[2]; 500 mg/kg QD p.o. 21 days, Model 535.521 ± 15.5632, P < 0.001 vs Model",757.479 ± 7.5044 gf
same,Peak Grip Strength,[2]; BTUDC-H 1000 mg/kg p.o. Qd 21 days,767.101 ± 6.668
same,Peak Grip Strength,[2]; BTUDC-L 100 mg/kg p.o. Qd 21 days,711.616 ± 7.934
same,Peak Grip Strength,[2]; BTUDC-M 500 mg/kg p.o. Qd 21 days,737.000 ± 8.222
